Results: US20250263376A1, “(E)-N-CINNAMOYLAMINOALKANOLS WITH MELANOGENESIS INHIBITORY ACTIVITY” (Uniwersytet Jagiellonski, priority 2024, published 2025)

How the values were obtained:
tyrosinase from mushroom [1] = target: T1, tyrosinase from mushroom (Agaricus bisporus, UniProt C7FF04); test: Inhibition of commercial mushroom tyrosinase, substrate L-tyrosine; type: biochemical; settings: for inhibition at 500 µM: read-out: Tyrosinase inhibition with L-tyrosine [%]
Method: (§1) Studies on the Inhibition of the Activity of Commercial Tyrosinase from Mushroom (Sigma: T3824)
(§2) The following substrates were used for the enzymatic reaction: L-tyrosine and L-3,4-dihyroxyphenylalanine (L-DOPA). Both substrates were used in independent experiments. According to the literature, the use of L-DOPA enables the assessment of tyrosinase diphenolase activity, and L-tyrosine—the tyrosinase monophenolase activity. The determinations were performed in 96-well plates, in each well there was placed: 170 μL or 127.5 μL of 50 mM phosphate buffer (pH=6.8) with tyrosinase (1U/well or 3U/well) and 10 μL of a solution of the tested compound in DMSO (the final concentration in the well was 500 μM, 250 μM or 125 μM). The negative control used 10 u L of pure solvent (DMSO). To initiate the reaction, an appropriate substrate was added: L-tyrosine (62.5 μL of solution in phosphate buffer) or L-DOPA (20 μL of solution in phosphate buffer). After a 25-minute incubation, the absorbance was measured at 475 nm using a microplate reader. The percentage of inhibition of tyrosinase activity was calculated using the formula: [(AC−AT)/[…], where AC—is the absorbance of the negative control, AT—is the absorbance of the sample containing the tested compound.

tyrosinase from mushroom [2] = target: T1, tyrosinase from mushroom; test: Inhibition of commercial mushroom tyrosinase, substrate L-DOPA; type: biochemical; settings: for inhibition at 500 µM: read-out: Tyrosinase inhibition with L-DOPA [%]
Method: as §1, §2

[3] = Lipophilicity coefficient RM0 by reversed phase thin layer chromatography; type: physicochemical; settings: RP-18 TLC, methanol/phosphate buffer pH=7.4
Method: Confirmation of the identity and purity of the obtained compounds consisted in the registration and interpretation of 1H NMR and 13C NMR spectra (the spectra were recorded using an ECZR 500 MHZ (JEOL) series FT-NMR spectrophotometer), as well as the registration and interpretation of LC-MS spectra (the spectra were recorded using Acquita UPLC system (Waters) coupled with a Waters TQD mass spectrometer). The melting point was measured using the open capillary method in the IA9300 device (Electrothermal). The lipophilicity coefficient RM0 was determined by reversed phase thin layer chromatography. In the study, aluminum plates 20×20 cm covered with modified silica gel RP-18 F254 (Merck) were used as the solid phase. The mobile phase consisted of solutions of methanol and 100 mM phosphate buffer (pH=7.4), characterized by a variable methanol content ranging from 95 to 65% (v/v). The tested compounds were dissolved in methanol to obtain solutions with a concentration of 1 mg/mL. Then, […] of the solutions prepared in this way were transferred to the starting line on aluminum plates, which were then placed in chromatographic chambers previously saturated with mobile phase vapors for at least 1 hour. All activities, including the development of chromatograms, were carried out at room temperature. After developing the chromatograms to approximately 1-2 cm from the end of the plate, the plates were dried and then the distance traveled by the tested compounds was visualized under UV light (λ=254 nm). The experiment was performed in duplicate for the specified conditions. For all samples, Rf was calculated according to the formula Rf=a/b, where a—the distance traveled by the tested compound, b—the distance traveled by the mobile phase. Then, the RM parameter was calculated for all samples according to the formula RM=log (1/Rf−1), obtaining a linear relationship between the RM values and the methanol concentration in the mobile phase. The log P coefficient was also calculated using the following computer programs: ACD/ChemSketch 2020.1.2 and ChemDraw 20.0.0.41.

[4] = system: B16-F10 murine melanoma cell line; test: Cytotoxicity (MTT) in B16-F10 murine melanoma cells; type: cell-based; settings: 48 h
Method: Cytotoxicity Assessment in the B16-F10 Murine Melanoma Cell Line (ATTC CRL-6745)—Preliminary Safety Assessment for Subsequent Studies
In order to determine safe doses of compounds for testing the inhibition of melanogenesis in a murine melanoma cell line, cytotoxicity tests were performed. Cytotoxicity was determined by the colorimetric method using MTT ([3-(4,5-dimethyl-2-thiazolyl)-2,5-diphenyl-2H-tetrazolium bromide, Sigma M5655). For this purpose, cells were transferred to 96-well plates in an amount of 5000/well. After 24 h of culture in an incubator in F10-Ham medium with 1% FBS, the tested compounds at various concentrations were added to the wells together with fresh medium. DMSO was added to the medium in a negative control. The MTT test was performed after further culture for 48 h. Then the medium was removed and the formed formazan crystals were dissolved in DMSO. The absorbance was measured at 570 nm in a plate reader and the result was compared to the control (DMSO), which was 100%. The percentage of viability was calculated using the formula: [AT/AC*100], where AT is the absorbance of the test sample, AC—absorbance of the control sample.

T1 sequence (C7FF04 2-392): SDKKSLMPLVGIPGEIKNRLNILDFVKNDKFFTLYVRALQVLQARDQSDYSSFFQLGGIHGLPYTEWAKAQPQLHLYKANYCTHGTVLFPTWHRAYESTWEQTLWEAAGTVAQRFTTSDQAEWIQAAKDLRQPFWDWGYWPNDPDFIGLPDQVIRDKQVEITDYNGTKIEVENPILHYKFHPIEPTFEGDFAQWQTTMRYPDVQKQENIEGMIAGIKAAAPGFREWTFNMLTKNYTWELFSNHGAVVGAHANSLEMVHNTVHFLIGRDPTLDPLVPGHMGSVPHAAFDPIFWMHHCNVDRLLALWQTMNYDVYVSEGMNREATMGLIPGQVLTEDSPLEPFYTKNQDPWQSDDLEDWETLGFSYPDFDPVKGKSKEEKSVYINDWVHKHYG
T1 sequence (G1K3P4 entry or part of it, further chain): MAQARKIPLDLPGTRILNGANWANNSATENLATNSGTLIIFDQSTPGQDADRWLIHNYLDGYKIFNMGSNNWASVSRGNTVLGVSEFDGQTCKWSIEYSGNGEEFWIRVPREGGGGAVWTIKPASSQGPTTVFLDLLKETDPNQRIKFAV

| Structure (SMILES) | inhibition at 500 µM (tyrosinase from mushroom [1]) | inhibition at 500 µM (tyrosinase from mushroom [2]) | RM0 [3] | inhibition at 125 µM (tyrosinase from mushroom [1]; 125 μM) | inhibition at 125 µM (tyrosinase from mushroom [2]; 125 μM) | Cytotoxicity study in B16F10 cells, % viability ([4]; 12.5 μM) | Cytotoxicity study in B16F10 cells, % viability ([4]; 25 μM) | Cytotoxicity study in B16F10 cells, % viability ([4]; 50 μM) | Cytotoxicity study in B16F10 cells, % viability ([4]; 150 μM) | Cytotoxicity study in B16F10 cells, % viability ([4]; 200 μM) | Cytotoxicity study in B16F10 cells, % viability ([4]; 250 μM) |
| --- | --- | --- | --- | --- | --- | --- | --- | --- | --- | --- | --- |
| CCC(CO)NC(=O)/C=C/c1ccc(C)cc1 (stereo not drawn) [H-409/21, (2E)-N-(1-hydroxybutan-2-yl)-3-(4-methylphenyl)prop-2-enamide] | 15.3 ± 8.27% | 21.8 ± 2.31% | 2.49 | – | – | – | – | – | 83.2% | 95.3% | 103.4% |
| Cc1ccc(/C=C/C(=O)NCCCO)cc1 [H-410/21, (2E)-N-(3-hydroxypropyl)-3-(4-methylphenyl)prop-2-enamide] | 0.51 ± 5.4% | 17 ± 5.66% | 2.04 | – | – | – | – | – | 88.8% | 90.7% | 79.8% |
| O=C(/C=C/c1ccc(Cl)cc1)NCCCCCCO [H-426/21, (2E)-3-(4-chlorophenyl)-N-(6-hydroxyhexyl)prop-2-enamide] | – | – | 3.02 | 39.9 ± 3.21% | 30.7 ± 1.82% | – | – | – | 30.3% | 28.2% | 28.3% |

Now from value to molecule, other results behind:

| inhibition at 500 µM (tyrosinase from mushroom [1]) | inhibition at 500 µM (tyrosinase from mushroom [2]) | RM0 [3] | inhibition at 125 µM (tyrosinase from mushroom [1]; 125 μM) | inhibition at 125 µM (tyrosinase from mushroom [2]; 125 μM) | Structure (SMILES) | Cytotoxicity study in B16F10 cells, % viability ([4]; 12.5 μM) | Cytotoxicity study in B16F10 cells, % viability ([4]; 25 μM) | Cytotoxicity study in B16F10 cells, % viability ([4]; 50 μM) | Cytotoxicity study in B16F10 cells, % viability ([4]; 150 μM) | Cytotoxicity study in B16F10 cells, % viability ([4]; 200 μM) | Cytotoxicity study in B16F10 cells, % viability ([4]; 250 μM) |
| --- | --- | --- | --- | --- | --- | --- | --- | --- | --- | --- | --- |
| 82.5 ± 0.87% | 64.31 ± 0.21% | 2.14 | – | – | O=C(/C=C/c1ccc(Cl)cc1)NCCCCO [H-331/21, (2E)-3-(4-chlorophenyl)-N-(4-hydroxybutyl)prop-2-enamide] | 49.0% | 47.8% | 54.2% | 32.7% | 51.9% | 52.7% |
| 20.4 ± 2.09% | 16.9 ± 7.94% | 2.27 | – | – | Cc1ccc(/C=C/C(=O)NCCCCO)cc1 [H-411/21, (2E)-N-(4-hydroxybutyl)-3-(4-methylphenyl)prop-2-enamide] | – | – | – | 50.6% | 34.9% | 41.2% |
| 21 ± 8.83% | 30.5 ± 1.2% | 1.27 | – | – | O=C(/C=C/c1ccccc1)NCCO [H-429/21, (2E)-N-(2-hydroxyethyl)-3-phenylprop-2-enamide] | – | – | – | 86.4% | 79.8% | 80.9% |
| 27.4 ± 2.24% | 34.2 ± 2.32% | 1.60 | – | – | O=C(/C=C/c1ccccc1)NCCCO [KM-634, (2E)-N-(3-hydroxypropyl)-3-phenylprop-2-enamide] | – | – | – | 76.1% | 70.5% | 63.3% |
